Read-outs that look alike come from different tables or passages of the source.
Key:
[1] = tested on: GFP expression in E. coli BL21(DE3)pLysS; type: cell-based, Escherichia coli; conditions: for GFP yield / course of induced GFP expression (time of maximum): 100 μm inducer; for state of the induced culture (lysis, foaming): fermenter culture, after 8 hours post induction; for specific yield of GFP / total yield of GFP: defined medium A; for course of induced GFP expression (time of maximum): post induction, FIG. 10A
Procedure: Benchtop Fermentations. Batch fermentation experiments were carried out in a 14-I bioreactor (BioFlo 110, New Brunswick Scientific, Edison, N.J. USA) to compare GFP production yield between T7 expression system and cumate system. For the batch culture, pre-cultures were used to inoculate the bioreactor filled with 5 l of medium A (Yoon et al, 2003) and initial O.D. was adjusted to 0.1 for both expression systems. The cultures induced with IPTG for T7 system and cumate for cumate system when O.D. reached at 38 to 42. For cultures carried out in bioreactors, pH and dissolved oxygen were controlled at 7 and 25%, respectively.
(§1) Detection of gene expression. Detection of GFP was carried out by fluorescence microscopy, and quantified by using a SPECTRAFluor Plus (TECAN Austria Gmbh, Grodïg, Austria) under excitation and emission wavelengths of 485 and 508 nm, respectively. Concentration of GFP was calculated based on a linear relationship between concentration and fluorescence units determined using solutions of purified GFP (Qbiogene). The biomass (X) was determined by cell dry weight measurement of the samples (Moisture Analyzer MA 30, Sartorius).
All results obtained were in defined medium A. The value ‘x’ is dry weight in g/L.
All results obtained were in defined medium A.

[2] = tested on: GFP expression in host cells; assay: Plate assay: GFP expression, T7 system vs cumate system; type: cell-based, Escherichia coli; conditions: plates with IPTG (1 mM) or cumate (0.12 mM); FIG. 4
Procedure: Host cell transformation and gene expression. pNEW vectors harbouring different genes of interest were transformed into various E. coli cells by chemical or electroporation methods (Sambrook and Russell, 2000). The transformed cells were grown at 37° C. in LB medium, and expression of genes under developed system was induced with 20 μg/ml cumate or as indicated.
as §1
FIG. 4 depicts a comparison between T7 system and cumate system for GFP expression in plates containing IPTG (1 mM) and cumate (0.12 mM) as inducer, respectively.

[3] = 45 minutes post induction, FIG. 9C
[4] = 2 hours post induction, FIG. 9E
[5] = 3 hours post induction, FIG. 9F
[6] = inducer 100 μM, induction time 1 h
[7] = inducer 100 μM, induction time 2 h
[8] = inducer 100 μM, induction time 4 h
[9] = inducer 100 μM, induction time 5 h
[10] = inducer 100 μM, induction time 6 h
[11] = inducer 100 μM, induction time 7 h
[12] = inducer 100 μM, induction time 8 h
[13] = inducer 100 μM, induction time 9 h
[14] = inducer 1000 μM, induction time 1 h
[15] = inducer 1000 μM, induction time 2 h
[16] = inducer 1000 μM, induction time 4 h
[17] = inducer 1000 μM, induction time 5 h
[18] = inducer 1000 μM, induction time 6 h
[19] = inducer 1000 μM, induction time 7 h
[20] = inducer 1000 μM, induction time 8 h
[21] = inducer 1000 μM, induction time 9 h

| SMILES | GFP yield [1, 3] [mg/g] | GFP yield ([1]; 1 hour post induction, FIG. 9D) [mg/g] | GFP yield [1, 4] [mg/g] | GFP yield [1, 5] [mg/g] | state of the induced culture (lysis, foaming) [1] | specific yield of GFP [1, 6] [mg/g x] | total yield of GFP [1, 6] [mg/L] | specific yield of GFP [1, 7] [mg/g x] | total yield of GFP [1, 7] [mg/L] | specific yield of GFP [1, 8] [mg/g x] | total yield of GFP [1, 8] [mg/L] | specific yield of GFP [1, 9] [mg/g x] | total yield of GFP [1, 9] [mg/L] | specific yield of GFP [1, 10] [mg/g x] | total yield of GFP [1, 10] [mg/L] | specific yield of GFP [1, 11] [mg/g x] | total yield of GFP [1, 11] [mg/L] | specific yield of GFP [1, 12] [mg/g x] | total yield of GFP [1, 12] [mg/L] | specific yield of GFP [1, 13] [mg/g x] | other results |
| --- | --- | --- | --- | --- | --- | --- | --- | --- | --- | --- | --- | --- | --- | --- | --- | --- | --- | --- | --- | --- | --- |
| CC(C)c1ccc(C(=O)O)cc1 [Cumate, p-cumate] | 30 | 38 | 84 | 123 | no lysis occurred | 38 | 602 | 84 | 644 | 123 | 3002 | 164 | 4719 | 176 | 5443 | 165 | 6194 | 193 | 6977 | 222 | cumate induced GFP yield relative to IPTG induced culture ([1]; cultures induced with 1000 μM IPTG or cumate): more than double; total yield of GFP [1, 13]: 7838 mg/L; specific yield of GFP [1, 14]: 36 mg/g x; total yield of GFP [1, 14]: 486 mg/L; specific yield of GFP [1, 15]: 71 mg/g x; total yield of GFP [1, 15]: 1459 mg/L; specific yield of GFP [1, 16]: 110 mg/g x; total yield of GFP [1, 16]: 2851 mg/L; specific yield of GFP [1, 17]: 141 mg/g x; total yield of GFP [1, 17]: 4593 mg/L; specific yield of GFP [1, 18]: 149 mg/g x; total yield of GFP [1, 18]: 4885 mg/L; specific yield of GFP [1, 19]: 155 mg/g x; total yield of GFP [1, 19]: 5989 mg/L; specific yield of GFP [1, 20]: 249 mg/g x; total yield of GFP [1, 20]: 9666 mg/L; specific yield of GFP [1, 21]: 289 mg/g x; total yield of GFP [1, 21]: 11150 mg/L; course of induced GFP expression (time of maximum) [1]: > 8 h; GFP expression on plates, comparison of systems [2]: dramatically outperforms the IPTG system |
| CC(C)S[C@@H]1O[C@H](CO)[C@H](O)[C@H](O)[C@H]1O [IPTG, isopropyl-beta-D-thiogalactopyranoside] | 27 | 37 | 74 | 90 | quickly began to lyse | 37 | 554 | 74 | 1300 | 90 | 1778 | 96 | 2486 | 85 | 2035 | 58 | 1567 | 68 | 1948 | 67 | total yield of GFP [1, 13]: 2090 mg/L; specific yield of GFP [1, 14]: 37 mg/g x; total yield of GFP [1, 14]: 606 mg/L; specific yield of GFP [1, 15]: 60 mg/g x; total yield of GFP [1, 15]: 1191 mg/L; specific yield of GFP [1, 16]: 83 mg/g x; total yield of GFP [1, 16]: 1966 mg/L; specific yield of GFP [1, 17]: 103 mg/g x; total yield of GFP [1, 17]: 2464 mg/L; specific yield of GFP [1, 18]: 118 mg/g x; total yield of GFP [1, 18]: 3340 mg/L; specific yield of GFP [1, 19]: 135 mg/g x; total yield of GFP [1, 19]: 4238 mg/L; specific yield of GFP [1, 20]: 145 mg/g x; total yield of GFP [1, 20]: 4079 mg/L; course of induced GFP expression (time of maximum) [1]: 4 h |

From patent publication US8318455B2, “Inducible/regulated gene expression system in E coli” (priority 2007, dated 2012)
